Laboratory results reported in ChEMBL document CHEMBL1141938 (Bioorg Med Chem Lett, 2005).
pIC50: −log10 of the molar value.

Experiments:
[1] = tested on: Human immunodeficiency virus; assay: Antiviral activity in MT4 human T lymphoid cells infected with wild type NL4-3 HIV; assay type: functional; details: Human immunodeficiency virus 1, NL4-3, MT4; read-out: CIC95
[2] = tested on: Human immunodeficiency virus; assay: Antiviral activity against 4X HIV strain; assay type: functional; details: Human immunodeficiency virus 1, 4X; read-out: CIC95
[3] = tested on: Human immunodeficiency virus; assay: Antiviral activity against mutant HIV isolate K-60C; assay type: functional; details: Human immunodeficiency virus 1, K-60; read-out: CIC95
[4] = tested on: Human immunodeficiency virus; assay: Antiviral activity against mutant HIV isolate V-18C; assay type: functional; details: Human immunodeficiency virus 1, V-18C; read-out: CIC95
[5] = tested on: Human immunodeficiency virus; assay: Antiviral activity against mutant HIV isolate Q-60C; assay type: functional; details: Human immunodeficiency virus 1, Q-60C; read-out: CIC95
[6] = biological target: Human immunodeficiency virus type 1 protease (Human immunodeficiency virus 1, UniProt Q72874)
Description: Inhibitory activity against HIV protease

[7] = Cmax in rat at 2 mg/kg, po; assay type: ADME, organism-based; design: dose 2 mg/kg, route oral; details: in vivo
Rattus norvegicus = assay: AUC in rat at 2 mg/kg, po; assay type: ADME, organism-based, Plasma; design: dose 2 mg/kg, route oral; details: in vivo
[8] = Oral bioavailability in rat at 2 mg/kg, po; assay type: ADME, organism-based; details: in vivo
[9] = Half life in rat at 2 mg/kg, po; assay type: ADME, organism-based; design: dose 2 mg/kg, route oral; details: in vivo
[10] = Plasma clearance in rat at 2 mg/kg, po; assay type: ADME, organism-based; design: dose 2 mg/kg, route oral
Cytochrome P450 3A4 = Cytochrome P450 3A4 (Homo sapiens, UniProt P08684); assay: Inhibitory activity against CYP3A4; assay type: ADME
Cytochrome P450 2D6 = Cytochrome P450 2D6 (Homo sapiens, UniProt P10635); assay: Inhibitory activity against CYP2D6; assay type: ADME
Cytochrome P450 2C9 = Cytochrome P450 2C9 (Homo sapiens, UniProt P11712); assay: Inhibitory activity against CYP2C9; assay type: ADME
Cytochrome P450 2C9, sequence (P11712 whole entry): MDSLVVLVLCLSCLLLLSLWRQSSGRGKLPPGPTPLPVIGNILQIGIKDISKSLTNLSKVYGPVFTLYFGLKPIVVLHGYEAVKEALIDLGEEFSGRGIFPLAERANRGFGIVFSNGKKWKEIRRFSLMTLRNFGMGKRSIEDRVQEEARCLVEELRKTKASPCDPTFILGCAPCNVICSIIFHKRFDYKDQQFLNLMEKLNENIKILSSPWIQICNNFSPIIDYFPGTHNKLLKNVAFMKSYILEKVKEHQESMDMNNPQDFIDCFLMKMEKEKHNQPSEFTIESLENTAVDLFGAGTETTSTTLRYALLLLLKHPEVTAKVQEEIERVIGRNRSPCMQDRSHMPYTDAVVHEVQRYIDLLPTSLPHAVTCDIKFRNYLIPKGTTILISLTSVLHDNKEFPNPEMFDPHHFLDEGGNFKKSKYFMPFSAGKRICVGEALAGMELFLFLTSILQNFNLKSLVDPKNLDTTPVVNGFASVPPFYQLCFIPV

Cytochrome P450 2D6, sequence (P10635 whole entry): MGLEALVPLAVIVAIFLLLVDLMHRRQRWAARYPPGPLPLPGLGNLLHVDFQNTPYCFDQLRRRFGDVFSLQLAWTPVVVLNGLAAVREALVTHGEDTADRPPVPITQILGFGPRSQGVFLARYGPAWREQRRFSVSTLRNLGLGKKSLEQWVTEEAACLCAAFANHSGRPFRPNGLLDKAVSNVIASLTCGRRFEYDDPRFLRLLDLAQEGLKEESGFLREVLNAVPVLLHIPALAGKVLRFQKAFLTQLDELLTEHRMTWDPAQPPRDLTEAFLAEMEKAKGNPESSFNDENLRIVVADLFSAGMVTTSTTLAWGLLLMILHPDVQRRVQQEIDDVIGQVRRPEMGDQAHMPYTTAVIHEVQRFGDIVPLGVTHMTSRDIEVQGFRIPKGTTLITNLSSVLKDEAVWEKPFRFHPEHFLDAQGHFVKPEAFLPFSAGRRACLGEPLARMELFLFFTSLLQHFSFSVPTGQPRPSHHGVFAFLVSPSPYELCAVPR
Cytochrome P450 3A4, sequence (P08684 whole entry): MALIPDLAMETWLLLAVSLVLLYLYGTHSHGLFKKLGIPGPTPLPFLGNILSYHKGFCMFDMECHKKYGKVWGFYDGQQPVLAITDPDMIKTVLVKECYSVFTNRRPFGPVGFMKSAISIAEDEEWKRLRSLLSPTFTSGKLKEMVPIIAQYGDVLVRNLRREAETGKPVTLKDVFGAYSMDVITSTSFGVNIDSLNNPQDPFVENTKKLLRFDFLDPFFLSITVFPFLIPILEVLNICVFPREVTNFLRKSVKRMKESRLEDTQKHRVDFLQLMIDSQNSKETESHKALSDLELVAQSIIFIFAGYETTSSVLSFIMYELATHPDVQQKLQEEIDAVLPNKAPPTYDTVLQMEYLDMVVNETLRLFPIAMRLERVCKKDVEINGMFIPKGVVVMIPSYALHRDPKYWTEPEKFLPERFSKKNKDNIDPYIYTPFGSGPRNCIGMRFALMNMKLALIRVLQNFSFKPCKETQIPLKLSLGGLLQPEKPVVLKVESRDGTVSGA

Question: With `Cc1ccncc1-c1ccc(C[C@H](C[C@H](O)CN2CCN(Cc3ccc(-c4ccc(Cl)cc4)o3)C[C@H]2C(=O)NCC(F)(F)F)C(=O)N[C@H]2c3ccccc3OC[C@H]2O)o1` as the compound, how does the IC95 [1] read?
Answer: 15.6 nM

Question: And the IC95 [2]?
Answer: 31.3 nM

Question: And the IC95 [3]?
Answer: < 7.8 nM

Question: What about the IC95 [4] of the same compound?
Answer: 125 nM

Question: And the IC95 [5]?
Answer: 62.5 nM

Question: What about the pIC50 [6] of the same compound?
Answer: 10.10

Question: Which IC95 [1] does the source give for `CC(C)(c1ncc(-c2ccc(Cl)cc2)s1)N1CCN(C[C@@H](O)C[C@@H](Cc2cc3cnccc3s2)C(=O)N[C@H]2c3ccccc3OC[C@H]2O)[C@H](C(=O)NCC(F)(F)F)C1` here?
Answer: < 7.8 nM

Question: What about the IC95 [2] of the same compound?
Answer: < 7.8 nM

Question: What about the IC95 [3] of the same compound?
Answer: < 7.8 nM

Question: What about the IC95 [4] of the same compound?
Answer: 31.3 nM

Question: And the IC95 [5]?
Answer: < 7.8 nM

Question: And the pIC50 [6]?
Answer: 10.40

Question: For `O=C(N[C@H]1c2ccccc2OC[C@H]1O)[C@H](Cc1cc2cnccc2s1)C[C@H](O)CN1CCN(Cc2ccc(-c3ccc(Cl)cc3)o2)C[C@H]1C(=O)NCC(F)(F)F`, which IC95 [1] is on record?
Answer: 15.6 nM

Question: And the IC95 [2]?
Answer: 15.6 nM

Question: What about the IC95 [3] of the same compound?
Answer: < 7.8 nM

Question: What about the IC95 [4] of the same compound?
Answer: 125 nM

Question: And the IC95 [5]?
Answer: 31.3 nM

Question: And the pIC50 [6]?
Answer: 10.52

Question: For `Cc1ccncc1-c1ccc(C[C@H](C[C@H](O)CN2CCN(Cc3ncc(-c4ccc(Cl)cc4)o3)C[C@H]2C(=O)NCC(F)(F)F)C(=O)N[C@H]2c3ccccc3OC[C@H]2O)o1`, which IC95 [1] is on record?
Answer: < 7.8 nM

Question: And the IC95 [2]?
Answer: 62.5 nM

Question: What about the IC95 [3] of the same compound?
Answer: 15.6 nM

Question: What about the IC95 [4] of the same compound?
Answer: 125 nM

Question: And the IC95 [5]?
Answer: 62.5 nM

Question: And the pIC50 [6]?
Answer: 10.52

Question: For `Cc1ccncc1-c1ccc(C[C@H](C[C@H](O)CN2CCN(Cc3csc(-c4ccc(F)cc4)n3)C[C@H]2C(=O)NCC(F)(F)F)C(=O)N[C@H]2c3ccccc3OC[C@H]2O)o1`, which IC95 [1] is on record?
Answer: < 7.8 nM

Question: What about the IC95 [2] of the same compound?
Answer: 15.6 nM

Question: And the IC95 [3]?
Answer: 125 nM

Question: And the IC95 [4]?
Answer: 62.5 nM

Question: What about the IC95 [5] of the same compound?
Answer: 125 nM

Question: What about the pIC50 [6] of the same compound?
Answer: 9.96

Question: With `O=C(N[C@H]1c2ccccc2OC[C@H]1O)[C@H](Cc1cc2ccncc2o1)C[C@H](O)CN1CCN(Cc2ccc(-c3ccc(Cl)cc3)o2)C[C@H]1C(=O)NCC(F)(F)F` as the compound, how does the IC95 [1] read?
Answer: < 7.8 nM

Question: And the IC95 [2]?
Answer: 31.3 nM

Question: What about the IC95 [3] of the same compound?
Answer: < 7.8 nM

Question: And the IC95 [4]?
Answer: 62.5 nM

Question: What about the IC95 [5] of the same compound?
Answer: 15.6 nM

Question: What about the pIC50 [6] of the same compound?
Answer: 10.30

Question: Which results are given for `CC(C)(c1ncc(-c2ccc(Cl)cc2)o1)N1CCN(C[C@@H](O)C[C@@H](Cc2cc3cnccc3s2)C(=O)N[C@H]2c3ccccc3OC[C@H]2O)[C@H](C(=O)NCC(F)(F)F)C1`?
Answer: IC95 [1]: < 7.8 nM; IC95 [2]: < 7.8 nM; IC95 [3]: < 7.8 nM; IC95 [4]: < 7.8 nM; IC95 [5]: < 7.8 nM; Cmax [7]: 52 nM; AUC (Rattus norvegicus): 0.36 uMh; bioavailability [8]: 7.3%; half-life [9]: 48 min; CL/F [10]: 111 mL/min/kg; pIC50 (Cytochrome P450 3A4): > 6.00; pIC50 (Cytochrome P450 2D6): > 6.00; pIC50 (Cytochrome P450 2C9): > 6.00; pIC50 [6]: 10.70

Question: Which results are given for `O=C(N[C@H]1c2ccccc2OC[C@H]1O)[C@H](Cc1cc2cnccc2s1)C[C@H](O)CN1CCN(Cc2ccc(-c3ccc(Cl)cc3)s2)C[C@H]1C(=O)NCC(F)(F)F`?
Answer: IC95 [1]: 15.6 nM; IC95 [2]: 15.6 nM; IC95 [3]: 31.3 nM; IC95 [4]: 125 nM; IC95 [5]: 31.3 nM; pIC50 [6]: 10.30
